Source: PubChem BioAssay AID256 (DTP/NCI, 2004)
Toxic doses and inconclusive results are not listed. The calls were made as follows: active = survival T/C of 150% or more; inactive = T/C below 125% in these data.

System: CD2F1 mice, L1210 leukemia ip, survival T/C
Assay: NCI In Vivo Anticancer Drug Screen. Data for tumor model L1210 Leukemia (intraperitoneal) in CD2F1 (CDF1) mice
Settings: higher = longer survival
Method in brief: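 Tumor-bearing mice (transplanted tumor) were split into treated and vehicle control groups, and the measured endpoint of each treated group was divided by that of its vehicle controls.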

[1] = endpoint: mean survival time, dose: 100.0 mg/kg/injection, schedule: Q04DX003 (ip), vehicle: saline with Tween-80
[2] = endpoint: mean survival time, dose: 200.0 mg/kg/injection, schedule: Q04DX003 (ip), vehicle: saline with Tween-80
[3] = endpoint: mean survival time, dose: 400.0 mg/kg/injection, schedule: Q04DX003 (ip), vehicle: saline with Tween-80
[4] = endpoint: mean survival time, dose: 25.0 mg/kg/injection, schedule: Q04DX002 (ip), vehicle: saline with Tween-80
[5] = endpoint: mean survival time, dose: 50.0 mg/kg/injection, schedule: Q04DX002 (ip), vehicle: saline with Tween-80
[6] = endpoint: mean survival time, dose: 200.0 mg/kg/injection, schedule: Q01DX001 (ip), vehicle: saline with Tween-80
[7] = endpoint: mean survival time, dose: 200.0 mg/kg/injection, schedule: Q01DX001 (ip), vehicle: saline
[8] = endpoint: mean survival time, dose: 400.0 mg/kg/injection, schedule: Q01DX001 (ip), vehicle: saline

Measured: T/C

NN(C(=O)c1ccc(Cl)cc1)c1ccccc1
inactive: [1] 95 % of control | [2] 92 % of control | [3] 97 % of control

CC[C@H]1CN2CCc3cc(OC)c(OC)cc3[C@@H]2C[C@@H]1C[C@@H]1c2cc(OC)c(OC)cc2CCN1N=O
inactive: endpoint: mean survival time, dose: 12.5 mg/kg/injection, schedule: Q01DX009 (ip), vehicle: saline 104 % of control | endpoint: mean survival time, dose: 25.0 mg/kg/injection, schedule: Q01DX009 (ip), vehicle: saline 104 % of control | endpoint: mean survival time, dose: 25.0 mg/kg/injection, schedule: Q04DX003 (ip), vehicle: saline 100 % of control | endpoint: mean survival time, dose: 50.0 mg/kg/injection, schedule: Q01DX009 (ip), vehicle: saline 107 % of control | endpoint: mean survival time, dose: 50.0 mg/kg/injection, schedule: Q04DX003 (ip), vehicle: saline 95 % of control

O=C1C=C/C(=N\N=C2/C=CC(=O)O2)O1
inactive: [4] 100 % of control | [5] 91 % of control

CSC/C(=N\Nc1ccc([N+](=O)[O-])cc1[N+](=O)[O-])c1ccccc1
inactive: endpoint: mean survival time, dose: 50.0 mg/kg/injection, schedule: Q01DX001 (ip), vehicle: saline with Tween-80 98 % of control | endpoint: mean survival time, dose: 100.0 mg/kg/injection, schedule: Q01DX001 (ip), vehicle: saline with Tween-80 93 % of control | [6] 90 % of control

Nc1cc(C(=O)O)c(O)c(Cl)c1O
inactive: endpoint: mean survival time, dose: 12.5 mg/kg/injection, schedule: Q04DX002 (ip), vehicle: saline with Tween-80 93 % of control | [4] 90 % of control | [5] 97 % of control

CC(=O)N(C1=CC(=O)c2ccccc2C1=O)c1ccc(C)cc1
inactive: endpoint: mean survival time, dose: 75.0 mg/kg/injection, schedule: Q01DX001 (ip), vehicle: saline 100 % of control | endpoint: mean survival time, dose: 150.0 mg/kg/injection, schedule: Q01DX001 (ip), vehicle: saline 100 % of control

Nc1ncnc2c1ncn2CCC(CO)CO
inactive: [7] 102 % of control | [8] 107 % of control

COC(=O)c1cccc(C)n1
inactive: endpoint: mean survival time, dose: 100.0 mg/kg/injection, schedule: Q01DX009 (ip), vehicle: saline with Tween-80 108 % of control | endpoint: mean survival time, dose: 200.0 mg/kg/injection, schedule: Q01DX009 (ip), vehicle: saline with Tween-80 94 % of control | endpoint: mean survival time, dose: 400.0 mg/kg/injection, schedule: Q01DX009 (ip), vehicle: saline with Tween-80 94 % of control

Nc1c(-c2nccc(=O)[nH]2)ncn1C1OC(CO)C(O)C1O (stereo not given)
inactive: endpoint: median survival time, dose: 12.5 mg/kg/injection, schedule: Q01DX005 (ip), vehicle: saline with Tween-80 102 % of control | endpoint: median survival time, dose: 25.0 mg/kg/injection, schedule: Q01DX005 (ip), vehicle: saline with Tween-80 96 % of control | endpoint: median survival time, dose: 50.0 mg/kg/injection, schedule: Q01DX005 (ip), vehicle: saline with Tween-80 103 % of control | endpoint: median survival time, dose: 100.0 mg/kg/injection, schedule: Q01DX005 (ip), vehicle: saline with Tween-80 98 % of control | endpoint: median survival time, dose: 200.0 mg/kg/injection, schedule: Q01DX005 (ip), vehicle: saline with Tween-80 102 % of control

COc1ccc(C2=CC(c3ccccc3)C(c3ccccc3)C(=O)N2)cc1 (stereo not given)
inactive: [4] 98 % of control | endpoint: mean survival time, dose: 200.0 mg/kg/injection, schedule: Q04DX002 (ip), vehicle: saline with Tween-80 97 % of control | endpoint: mean survival time, dose: 400.0 mg/kg/injection, schedule: Q04DX002 (ip), vehicle: saline with Tween-80 90 % of control

CCCN(CCC)S(=O)(=O)c1ccc(NC(=O)OC2CCCCC2)cc1
inactive: endpoint: mean survival time, dose: 100.0 mg/kg/injection, schedule: Q01DX001 (ip), vehicle: saline 93 % of control | [7] 98 % of control | [8] 97 % of control

CC(C(=O)O)=C(c1ccccc1)c1ccccc1
inactive: [1] 90 % of control | [2] 93 % of control | [3] 87 % of control

CN(C)N=C1CCC2(CC1)c1ccccc1-c1ccccc12
inactive: [6] 88 % of control | endpoint: mean survival time, dose: 400.0 mg/kg/injection, schedule: Q01DX001 (ip), vehicle: saline with Tween-80 87 % of control

CCC12NC(=O)NC1(C)NC(=O)N2 (stereo not given)
inactive: endpoint: mean survival time, dose: 6.25 mg/kg/injection, schedule: Q01DX009 (ip), vehicle: saline with Tween-80 95 % of control | endpoint: mean survival time, dose: 6.25 mg/kg/injection, schedule: Q04DX003 (ip), vehicle: saline with Tween-80 102 % of control | endpoint: mean survival time, dose: 12.5 mg/kg/injection, schedule: Q01DX009 (ip), vehicle: saline with Tween-80 95 % of control | endpoint: mean survival time, dose: 12.5 mg/kg/injection, schedule: Q04DX003 (ip), vehicle: saline with Tween-80 106 % of control | endpoint: mean survival time, dose: 25.0 mg/kg/injection, schedule: Q01DX009 (ip), vehicle: saline with Tween-80 93 % of control | endpoint: mean survival time, dose: 25.0 mg/kg/injection, schedule: Q04DX003 (ip), vehicle: saline with Tween-80 110 % of control
